The source of these data is the supplement of paper PMC10307832.

Holding throughout (test): relative viability (nuclei count vs DMSO), 5 days (fraction); higher = more cells survive
Compound in one experiment: NC(=O)[C@@H](CCC(F)(F)F)N(Cc1ccc(-c2ncon2)cc1F)S(=O)(=O)c1ccc(Cl)cc1 [Avagacestat]
The procedure, abridged:
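Only plates meeting two conditions passed: control CV below 25% and at least one doubling. Lung cancer cell lines, kept overnight at 37 °C in 1536-well plates, were pinned with five library-drug doses (not always all listed) √10 apart on vehicle-anchored plates and grown 5 days without medium change. A one-step fix, permeabilisation and Hoechst stain preceded 4× imaging and MetaXpress nuclear counting. Viability equals treated-well nuclei divided by vehicle-well nuclei, as the median over plates.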

Compound in the experiment “Avagacestat + Navitoclax”: NC(=O)[C@@H](CCC(F)(F)F)N(Cc1ccc(-c2ncon2)cc1F)S(=O)(=O)c1ccc(Cl)cc1 [Avagacestat] + CC1(C)CCC(c2ccc(Cl)cc2)=C(CN2CCN(c3ccc(C(=O)NS(=O)(=O)c4ccc(N[C@H](CCN5CCOCC5)CSc5ccccc5)c(S(=O)(=O)C(F)(F)F)c4)cc3)CC2)C1 [Navitoclax] (partner 0.5 µM)
In a few lines:
(§1)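 Cells from lung cancer lines were seeded into 1536-well plates and, one day later, dosed by pin tool. Treatments were either a single drug or a fixed dose of an anchor drug with five library-drug doses (not always all listed) in √10 steps. After 5 days, nuclei were stained in a one-step fixation (final 0.05% Triton X-100, 1% formaldehyde, 1 ug/ml Hoechst) and counted on 4× images, and relative viability is the treated-to-vehicle nuclei ratio, as the median of duplicate plates.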

Compound in the experiment “Avagacestat + Tozasertib”: NC(=O)[C@@H](CCC(F)(F)F)N(Cc1ccc(-c2ncon2)cc1F)S(=O)(=O)c1ccc(Cl)cc1 [Avagacestat] + Cc1cc(Nc2cc(N3CCN(C)CC3)nc(Sc3ccc(NC(=O)C4CC4)cc3)n2)n[nH]1 [Tozasertib] (partner 0.1 µM)
The procedure, abridged: as §1

Compound in the experiment “Avagacestat + Phenformin”: NC(=O)[C@@H](CCC(F)(F)F)N(Cc1ccc(-c2ncon2)cc1F)S(=O)(=O)c1ccc(Cl)cc1 [Avagacestat] + N=C(N)NC(=N)NCCc1ccccc1 [Phenformin] (partner 250 µM)
The procedure, abridged: as §1

In the case of COR-L23, the relative viability was found to be 1.16 with Avagacestat (0.08 µM); 1.24 with Avagacestat (0.253 µM); 0.989 in the experiment with Avagacestat (0.8 µM); 0.921 in the experiment with Avagacestat (2.53 µM); 0.901 with Avagacestat (8 µM); 1.57 with Avagacestat + Navitoclax (first compound 0.08 µM). Besides, the relative viability in the experiment with Avagacestat + Navitoclax (first compound 0.253 µM) turned out to be 1.31; with Avagacestat + Navitoclax (first compound 0.8 µM) it was 1.04; in the experiment with Avagacestat + Navitoclax (first compound 2.53 µM) it was 1; in the experiment with Avagacestat + Navitoclax (first compound 8 µM) it was 0.814; with Avagacestat + Tozasertib (first compound 0.08 µM), 0.363; with Avagacestat + Tozasertib (first compound 0.253 µM), 0.152. Moreover, the relative viability with Avagacestat + Tozasertib (first compound 0.8 µM) amounted to 0.171; in the experiment with Avagacestat + Tozasertib (first compound 2.53 µM), 0.173; in the experiment with Avagacestat + Tozasertib (first compound 8 µM) it was 0.149; with Avagacestat + Phenformin (first compound 0.08 µM) it was 0.463; in the experiment with Avagacestat + Phenformin (first compound 0.253 µM), 0.444; with Avagacestat + Phenformin (first compound 0.8 µM) it was 0.423. Moreover, the relative viability was determined as 0.435 with Avagacestat + Phenformin (first compound 2.53 µM) and 0.359 in the experiment with Avagacestat + Phenformin (first compound 8 µM).

On to COR-L 105, for which the relative viability is 0.955 with Avagacestat (0.08 µM); 1.07 in the experiment with Avagacestat (0.253 µM); 0.923 with Avagacestat (0.8 µM); 0.876 with Avagacestat (2.53 µM); 0.633 with Avagacestat (8 µM); 0.851 with Avagacestat + Navitoclax (first compound 0.08 µM). Also, the relative viability with Avagacestat + Navitoclax (first compound 0.253 µM) was determined as 0.604; with Avagacestat + Navitoclax (first compound 0.8 µM), 0.779; with Avagacestat + Navitoclax (first compound 2.53 µM), 0.595; with Avagacestat + Navitoclax (first compound 8 µM), 0.648; in the experiment with Avagacestat + Tozasertib (first compound 0.08 µM), 0.379; in the experiment with Avagacestat + Tozasertib (first compound 0.253 µM), 0.458. Also, the relative viability with Avagacestat + Tozasertib (first compound 0.8 µM) worked out at 0.41; with Avagacestat + Tozasertib (first compound 2.53 µM) it was 0.334; in the experiment with Avagacestat + Tozasertib (first compound 8 µM), 0.359; with Avagacestat + Phenformin (first compound 0.08 µM), 0.534; in the experiment with Avagacestat + Phenformin (first compound 0.253 µM), 0.407; with Avagacestat + Phenformin (first compound 0.8 µM), 0.448. The relative viability stood at 0.397 in the experiment with Avagacestat + Phenformin (first compound 2.53 µM) and 0.429 in the experiment with Avagacestat + Phenformin (first compound 8 µM).

Consider ChaGo-K-1, for which the relative viability worked out at 1.13 in the experiment with Avagacestat (0.08 µM); 0.948 with Avagacestat (0.253 µM); 0.969 in the experiment with Avagacestat (0.8 µM); 0.99 with Avagacestat (2.53 µM); 0.889 in the experiment with Avagacestat (8 µM); 0.987 with Avagacestat + Navitoclax (first compound 0.08 µM). Moreover, the relative viability was 0.926 with Avagacestat + Navitoclax (first compound 0.253 µM); 1.32 in the experiment with Avagacestat + Navitoclax (first compound 0.8 µM); 1.24 in the experiment with Avagacestat + Navitoclax (first compound 2.53 µM); 1.17 with Avagacestat + Navitoclax (first compound 8 µM); 0.198 with Avagacestat + Tozasertib (first compound 0.08 µM); 0.238 with Avagacestat + Tozasertib (first compound 0.253 µM). For the same cell line, the relative viability in the experiment with Avagacestat + Tozasertib (first compound 0.8 µM) came out at 0.22; with Avagacestat + Tozasertib (first compound 2.53 µM), 0.212; with Avagacestat + Tozasertib (first compound 8 µM), 0.226; in the experiment with Avagacestat + Phenformin (first compound 0.08 µM) it was 0.599; with Avagacestat + Phenformin (first compound 0.253 µM), 0.53; in the experiment with Avagacestat + Phenformin (first compound 0.8 µM), 0.511. The results for the relative viability with Avagacestat + Phenformin (first compound 2.53 µM) and with Avagacestat + Phenformin (first compound 8 µM) were 0.49 and 0.514, respectively.

EKVX: the relative viability with Avagacestat (0.08 µM) was determined as 1.17; in the experiment with Avagacestat (0.253 µM), 1.07; with Avagacestat (0.8 µM), 1.19; with Avagacestat (2.53 µM) it was 0.886; with Avagacestat (8 µM) it was 0.871; with Avagacestat + Navitoclax (first compound 0.08 µM), 1.12. Moreover, the relative viability with Avagacestat + Navitoclax (first compound 0.253 µM) was found to be 1.15; with Avagacestat + Navitoclax (first compound 0.8 µM) it was 1.04; with Avagacestat + Navitoclax (first compound 2.53 µM), 0.792; with Avagacestat + Navitoclax (first compound 8 µM), 0.853; with Avagacestat + Tozasertib (first compound 0.08 µM), 0.401; in the experiment with Avagacestat + Tozasertib (first compound 0.253 µM), 0.373. Also, the relative viability came to 0.382 with Avagacestat + Tozasertib (first compound 0.8 µM); 0.34 with Avagacestat + Tozasertib (first compound 2.53 µM); 0.287 with Avagacestat + Tozasertib (first compound 8 µM); 0.234 with Avagacestat + Phenformin (first compound 0.08 µM); 0.259 with Avagacestat + Phenformin (first compound 0.253 µM); 0.278 with Avagacestat + Phenformin (first compound 0.8 µM). Further, the relative viability with Avagacestat + Phenformin (first compound 2.53 µM) was 0.256; with Avagacestat + Phenformin (first compound 8 µM), 0.229.

With EMC-BAC-2, the relative viability with Avagacestat (0.08 µM) was found to be 1.22; in the experiment with Avagacestat (0.253 µM) it was 1.08; in the experiment with Avagacestat (0.8 µM), 1.15; with Avagacestat (2.53 µM) it was 1.08; with Avagacestat (8 µM), 1.1; in the experiment with Avagacestat + Navitoclax (first compound 0.08 µM) it was 1.46. The relative viability with Avagacestat + Navitoclax (first compound 0.253 µM) stood at 1.54; with Avagacestat + Navitoclax (first compound 0.8 µM), 1.38; with Avagacestat + Navitoclax (first compound 2.53 µM) it was 1.1; in the experiment with Avagacestat + Navitoclax (first compound 8 µM), 1.17; with Avagacestat + Tozasertib (first compound 0.08 µM) it was 0.278; with Avagacestat + Tozasertib (first compound 0.253 µM), 0.299. In addition, the relative viability in the experiment with Avagacestat + Tozasertib (first compound 0.8 µM) was 0.31; with Avagacestat + Tozasertib (first compound 2.53 µM), 0.255; in the experiment with Avagacestat + Tozasertib (first compound 8 µM), 0.322; in the experiment with Avagacestat + Phenformin (first compound 0.08 µM) it was 0.518; in the experiment with Avagacestat + Phenformin (first compound 0.253 µM) it was 0.607; with Avagacestat + Phenformin (first compound 0.8 µM), 0.574. Moreover, the relative viability with Avagacestat + Phenformin (first compound 2.53 µM) amounted to 0.522; in the experiment with Avagacestat + Phenformin (first compound 8 µM), 0.489.

Consider EPLC-272H, for which the relative viability with Avagacestat (0.08 µM) came to 0.989; with Avagacestat (0.253 µM), 0.922; with Avagacestat (0.8 µM), 1.07; with Avagacestat (2.53 µM) it was 1; with Avagacestat (8 µM), 0.911; with Avagacestat + Navitoclax (first compound 0.08 µM) it was 1.51. For the same cell line, the relative viability with Avagacestat + Navitoclax (first compound 0.253 µM) came out at 1.13; with Avagacestat + Navitoclax (first compound 0.8 µM) it was 1.32; with Avagacestat + Navitoclax (first compound 2.53 µM), 1.21; in the experiment with Avagacestat + Navitoclax (first compound 8 µM), 0.964; with Avagacestat + Tozasertib (first compound 0.08 µM), 0.186; in the experiment with Avagacestat + Tozasertib (first compound 0.253 µM) it was 0.48. In addition, the relative viability with Avagacestat + Tozasertib (first compound 0.8 µM) was 0.152; in the experiment with Avagacestat + Tozasertib (first compound 2.53 µM), 0.249; in the experiment with Avagacestat + Tozasertib (first compound 8 µM) it was 0.203; in the experiment with Avagacestat + Phenformin (first compound 0.08 µM) it was 0.309; with Avagacestat + Phenformin (first compound 0.253 µM), 0.321; with Avagacestat + Phenformin (first compound 0.8 µM), 0.321. Besides, the relative viability with Avagacestat + Phenformin (first compound 2.53 µM) is 0.306; in the experiment with Avagacestat + Phenformin (first compound 8 µM), 0.328.

Take H3255: the relative viability is 1.04 with Avagacestat (0.08 µM); 1.06 with Avagacestat (0.253 µM); 1.08 with Avagacestat (0.8 µM); 1.01 with Avagacestat (2.53 µM); 0.988 with Avagacestat (8 µM); 0.504 in the experiment with Avagacestat + Navitoclax (first compound 0.08 µM). Besides, the relative viability in the experiment with Avagacestat + Navitoclax (first compound 0.253 µM) turned out to be 0.59; with Avagacestat + Navitoclax (first compound 0.8 µM), 0.71; with Avagacestat + Navitoclax (first compound 2.53 µM) it was 0.431; with Avagacestat + Navitoclax (first compound 8 µM), 0.498; with Avagacestat + Tozasertib (first compound 0.08 µM), 0.529; in the experiment with Avagacestat + Tozasertib (first compound 0.253 µM), 0.55. For the same cell line, the relative viability with Avagacestat + Tozasertib (first compound 0.8 µM) came out at 0.825; in the experiment with Avagacestat + Tozasertib (first compound 2.53 µM) it was 0.556; in the experiment with Avagacestat + Tozasertib (first compound 8 µM), 0.693; in the experiment with Avagacestat + Phenformin (first compound 0.08 µM) it was 0.357; with Avagacestat + Phenformin (first compound 0.253 µM) it was 0.352; in the experiment with Avagacestat + Phenformin (first compound 0.8 µM), 0.326. The relative viability in the experiment with Avagacestat + Phenformin (first compound 2.53 µM) stood at 0.353; with Avagacestat + Phenformin (first compound 8 µM) it was 0.431.
